# Ends that are not written are not given here.
# Columns and labels:
# Assay type in all cases: cell-based, human
# hESCs (H1 and H9) = assay: hESC culture for 6 days on peptide-AT SAM arrays, Oct-4 and SSEA-4 staining
# Method: hESCs were passaged to SAMs of peptide-AT conjugates on gold in mTeSR™1 optionally supplemented with 10 ng/ml heregulin-β1 (Peprotech; Rocky Hill, N.J.) and 5 μM Y-27632 (Calbiochem; San Diego, Calif.). […] Some surfaces presented peptide-AT conjugates of only vitronectin GBP (SEQ ID NO:1), fibronectin GBP (SEQ ID NO:2) or bone sialoprotein GBP (SEQ ID NO:3) Alternatively, some surfaces presented peptide-AT conjugates of only the integrin-binding peptide (SEQ ID NO:5), another bioactive peptide derived from fibronectin (SEQ ID NO:6), the FGF receptor binding peptide (SEQ ID NO:4), the laminin-derived bioactive peptide (SEQ ID NO:7), […] (SEQ ID NO: 8) or […] (SEQ ID NO: 9). Furthermore, some surfaces presented separate peptide-AT conjugates of the integrin-binding peptide (SEQ ID NO:5) and FGF receptor binding peptide (SEQ ID NO:4); the integrin-binding peptide (SEQ ID NO:5) and vitronectin GBP (SEQ ID NO:1); the integrin-binding peptide (SEQ ID NO:5) and bioactive peptide derived from fibronectin (SEQ ID NO:6); and the vitronectin GBP (SEQ ID NO:1) and […] (SEQ ID NO: 9). The density of the peptides on the surface varied from 0.5% to 25% (see, FIG. 1).
# Images were collected with a Hamamatsu (Bridgewater, N.J.) Digital Camera mounted onto an Olympus IX81 Microscope. […]
# hESCs [1] = assay: Long-term (3 months) culture on defined surfaces, markers of pluripotency; conditions: 3 months of continuous passaging
# Text: Preferably, one spots ATs onto an inert background to form self-assembling monolayers (SAMs). See, e.g., Derda et al., supra; Derda R, et al., “Solid-phase synthesis of alkanethiols for the preparation of self-assembled monolayers,” Langmuir 23:11164-11167 (2007); and Houseman B & Mrksich M, “Efficient solid-phase synthesis of peptide-substituted alkanethiols for the preparation of substrates that support the adhesion of cells,” J. Org. Chem. 63:7552-7555 (1998), each of which is incorporated herein by reference as if set forth in its entirety. For example, a background can be formed of perfluoro-AT, which can be both cytophobic (i.e., repel cells) and solvophobic (i.e., repel solvents). First, a gold-coated surface can be coated with a perfluoro-AT monolayer, either leaving areas (i.e., holes) in the monolayer for the elements of an array or creating areas in the monolayer for the elements of the array in a subsequent step. Then, ATs coupled to a peptide, such as an GBP as described herein, can be attached to the substrate in the holes to complete the monolayer and to present ligands for pluripotent cell attachment to the surface. Surface density of the GBPs can be controlled using mixed SAMs of peptide-ATs and non-adhesive glucamine-ATs. […]
# Flow cytometry data was obtained using a FACSCalibur™ (BD Biosciences) and analyzed using FlowJo Software (Tree Star, Inc.; Ashland, Oreg.). […]
# hESCs [2] = assay: Embryoid body differentiation after long-term culture, germ layer marker staining; conditions: 3 months on surface, then 2 weeks EB suspension culture
# Text: Images were collected with a Hamamatsu (Bridgewater, N.J.) Digital Camera mounted onto an Olympus IX81 Microscope. Primary antibodies used were as follows: Oct-4 (1:400; R&D Systems; Minneapolis, Minn.), SSEA-4 (1:400; Santa Cruz Biotechnology; Santa Cruz, Calif.), β-III tubulin (1:3000; R&D Systems), nestin (1:3000), α-fetoprotein (1:250; Sigma), FoxA2 (1:100; R&D Systems), α-smooth muscle actin (1:1000; Sigma), and fatty acid binding protein 4 (1:250; R&D Systems). Cells were fixed with PBS containing 4% formaldehyde and 0.15% picric acid for 20 minutes at 37° C. and then permeabilized and blocked with PBS containing 0.1% Triton X-100 and 0.1% bovine serum albumin (BSA). All antibodies were incubated in blocking buffer overnight at 4° C., except for the antibodies against β-III tubulin, nestin and α-smooth muscle actin, which were incubated for 1 hour at room temperature. Secondary staining was performed with Alexa Fluor® 488- and/or 594-conjugated antibodies (1:1000; Invitrogen) diluted in blocking buffer and incubated for 1 hour at room temperature. Cells were counterstained with 4′,6-diamidino-2-phenylindole, dilactate (DAPI; Invitrogen). Image overlays were generated using ImageJ (ImageJ is a public domain Java image processing program available on the World Wide Web). Peptide array mosaics were generated using the AnalySIS Acquisition Software (Olympus).
sequence,measurement,setting,value
GKKQRFRHRNRKG (not fully specified (C-terminus); listed as Homo sapiens),"cell attachment and self-renewal, presence of Oct-4 and SSEA-4 after 6 days",hESCs (H1 and H9),best supported both cell attachment and self-renewal
same,markers of pluripotency after 3 months of culture,hESCs [1],maintained high levels of markers of pluripotency
same,markers of pluripotency after 3 months of culture,hESCs [1]; listed as SEQ ID NO:1,maintained at high levels
same,ectoderm derivatives: staining for β-III tubulin and nestin,hESCs [2],stained positive
same,endoderm derivatives: staining for α-fetoprotein and FoxA2,hESCs [2],stained positive
same,mesoderm derivatives: staining for fatty acid binding protein 4 and α-smooth muscle actin,hESCs [2],stained positive

# From patent US9006394B2, “Peptide-presenting surfaces for long-term culture of pluripotent cells” (Wisconsin Alumni Research Foundation, priority 2008, dated 2015)
